In PMC8892849 (ACS Omega, 2022):
Each block holds one compound with its values, some of them ahead of it.

How the values were obtained:
[1] = test system: hepatocellular carcinoma (HepG-2); assay: In vitro cytotoxic assay; type: cell-based, human; conditions: for IC50: Homo sapiens, HepG2, 48 h, read-out: IC50 (mean ± SEM) HepG-2; for SI (selectivity index) HepG-2: normal PBMC vs HepG-2
[2] = test system: prostate carcinoma (PC-3); assay: In vitro cytotoxic assay; type: cell-based, human; conditions: for IC50: Homo sapiens, 48 h, read-out: IC50 (mean ± SEM) PC-3; for SI (selectivity index) PC-3: normal PBMC vs PC-3
[3] = test system: breast adenocarcinoma (MCF-7); assay: In vitro cytotoxic assay; type: cell-based, human; conditions: for IC50: Homo sapiens, MCF7, 48 h, read-out: IC50 (mean ± SEM) MCF-7; for SI (selectivity index) MCF-7: normal PBMC vs MCF-7
[4] = test system: non-small cell lung cancer cells (A-549); assay: In vitro cytotoxic assay; type: cell-based, human; conditions: for IC50: Homo sapiens, A549, 48 h, read-out: IC50 (mean ± SEM) A-549; for SI (selectivity index) A-549: normal PBMC vs A-549
In vitro cytotoxic assay = type: cell-based; conditions: normal peripheral blood mononuclear cells (PBMCs)
p53 ubiquitination = assay: In vivo p53 ubiquitination inhibition of MCF-7 cells; type: cell-based; conditions: Homo sapiens, MCF7, 6 h, read-out: IC50 (mean ± SEM) p53 ubiquitination
EGFR^WT = EGFR^WT (Homo sapiens, UniProt P00533); assay: HTRF kinase inhibition assay, EGFR^WT
Sequence of EGFR^WT (P00533 25-1210): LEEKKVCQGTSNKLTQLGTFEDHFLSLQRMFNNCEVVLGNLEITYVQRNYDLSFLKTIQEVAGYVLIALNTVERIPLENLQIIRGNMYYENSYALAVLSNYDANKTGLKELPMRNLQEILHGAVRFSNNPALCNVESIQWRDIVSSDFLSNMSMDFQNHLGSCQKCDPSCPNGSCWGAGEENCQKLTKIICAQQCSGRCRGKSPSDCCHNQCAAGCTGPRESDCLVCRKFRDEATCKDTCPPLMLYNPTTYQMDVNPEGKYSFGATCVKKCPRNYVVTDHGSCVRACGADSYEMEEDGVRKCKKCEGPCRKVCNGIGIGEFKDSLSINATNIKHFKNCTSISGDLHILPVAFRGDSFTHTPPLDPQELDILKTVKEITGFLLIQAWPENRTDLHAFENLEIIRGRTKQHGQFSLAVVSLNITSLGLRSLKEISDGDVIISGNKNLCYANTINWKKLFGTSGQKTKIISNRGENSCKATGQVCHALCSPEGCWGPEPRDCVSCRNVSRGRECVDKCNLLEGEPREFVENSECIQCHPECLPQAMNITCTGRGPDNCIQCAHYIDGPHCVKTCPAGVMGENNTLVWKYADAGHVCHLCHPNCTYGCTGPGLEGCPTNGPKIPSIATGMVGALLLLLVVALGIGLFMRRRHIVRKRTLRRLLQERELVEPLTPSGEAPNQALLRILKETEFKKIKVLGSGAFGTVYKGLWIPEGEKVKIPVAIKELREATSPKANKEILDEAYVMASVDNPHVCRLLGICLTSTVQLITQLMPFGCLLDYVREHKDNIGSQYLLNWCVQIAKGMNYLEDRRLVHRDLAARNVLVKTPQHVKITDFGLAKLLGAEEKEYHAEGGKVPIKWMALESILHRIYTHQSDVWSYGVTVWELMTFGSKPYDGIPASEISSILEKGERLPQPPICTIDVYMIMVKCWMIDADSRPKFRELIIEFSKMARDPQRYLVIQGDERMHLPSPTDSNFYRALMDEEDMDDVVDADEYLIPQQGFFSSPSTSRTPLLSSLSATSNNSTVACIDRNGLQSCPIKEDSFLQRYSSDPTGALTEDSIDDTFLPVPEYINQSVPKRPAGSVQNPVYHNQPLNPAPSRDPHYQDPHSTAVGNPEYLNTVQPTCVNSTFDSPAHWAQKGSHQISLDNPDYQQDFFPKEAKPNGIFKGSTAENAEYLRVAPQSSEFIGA

EGFR^T790M = EGFR^T790M (Homo sapiens, UniProt P00533, T790M); assay: HTRF kinase inhibition assay, EGFR^T790M
Sequence of EGFR^T790M (P00533 25-1210 T790M): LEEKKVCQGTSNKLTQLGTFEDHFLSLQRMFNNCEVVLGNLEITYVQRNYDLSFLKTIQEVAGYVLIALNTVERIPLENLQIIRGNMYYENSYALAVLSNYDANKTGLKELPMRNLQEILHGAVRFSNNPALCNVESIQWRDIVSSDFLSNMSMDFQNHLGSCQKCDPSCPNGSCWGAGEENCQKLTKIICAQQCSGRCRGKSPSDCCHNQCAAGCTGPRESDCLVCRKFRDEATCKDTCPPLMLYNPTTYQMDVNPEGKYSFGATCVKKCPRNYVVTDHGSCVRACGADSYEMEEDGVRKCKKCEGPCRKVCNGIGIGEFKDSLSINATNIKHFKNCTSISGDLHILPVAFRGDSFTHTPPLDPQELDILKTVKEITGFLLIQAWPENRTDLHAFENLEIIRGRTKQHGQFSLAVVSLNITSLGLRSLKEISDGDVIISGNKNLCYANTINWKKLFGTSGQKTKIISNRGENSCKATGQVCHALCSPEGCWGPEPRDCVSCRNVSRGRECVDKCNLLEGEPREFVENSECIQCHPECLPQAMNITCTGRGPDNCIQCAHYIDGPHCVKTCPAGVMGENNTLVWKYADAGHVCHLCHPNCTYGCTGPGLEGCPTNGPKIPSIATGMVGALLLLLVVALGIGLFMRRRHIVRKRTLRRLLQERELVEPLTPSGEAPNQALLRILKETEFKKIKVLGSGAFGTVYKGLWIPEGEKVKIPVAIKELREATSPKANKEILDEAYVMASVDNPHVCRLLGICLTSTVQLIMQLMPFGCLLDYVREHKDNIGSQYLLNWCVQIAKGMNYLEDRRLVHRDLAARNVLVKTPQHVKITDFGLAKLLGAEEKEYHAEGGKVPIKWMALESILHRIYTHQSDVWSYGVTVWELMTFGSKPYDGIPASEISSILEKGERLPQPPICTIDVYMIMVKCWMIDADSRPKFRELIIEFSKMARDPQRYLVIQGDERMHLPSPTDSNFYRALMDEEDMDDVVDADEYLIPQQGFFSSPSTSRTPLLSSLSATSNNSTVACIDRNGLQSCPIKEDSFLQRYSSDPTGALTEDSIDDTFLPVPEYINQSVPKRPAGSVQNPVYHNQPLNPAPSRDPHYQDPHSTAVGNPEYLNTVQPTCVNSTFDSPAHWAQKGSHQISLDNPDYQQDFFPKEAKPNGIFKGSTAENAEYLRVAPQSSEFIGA

Structure (SMILES): CC(C)NC(=S)NC(=O)Cc1ccccc1 [Compound 2a, N-(Isopropylcarbamothioyl)-2-phenylacetamide]
IC50 [1]: 57.85 ± 0.07 µM
IC50 [2]: 26.8 ± 2.21 µM
IC50 [3]: 37.73 ± 0.08 µM
IC50 [4]: 34.57 ± 0.06 µM
IC50 at 48 h (In vitro cytotoxic assay): 121 ± 11.3 µM

Structure (SMILES): Nc1ccccc1NC(=S)NC(=O)Cc1ccccc1 [Compound 2c, N-((2-Aminophenyl)carbamothioyl)-2-phenylacetamide]
IC50 [1]: 47.66 ± 0.04 µM
IC50 [2]: 25.44 ± 0.04 µM
IC50 [3]: 21.76 ± 0.08 µM
IC50 [4]: 27.81 ± 0.04 µM
IC50 at 48 h (In vitro cytotoxic assay): 145 ± 14.9 µM

Structure (SMILES): O=C(Cc1ccccc1)NC(=S)Nc1cccc(O)c1 [Compound 2d, N-((3-Hydroxyphenyl)carbamothioyl)-2-phenylacetamide]
IC50 [1]: 34.77 ± 0.03 µM
IC50 [2]: 39.3 µM
IC50 [3]: 24.74 ± 0.08 µM
IC50 [4]: 20.84 ± 0.04 µM
IC50 at 48 h (In vitro cytotoxic assay): 158 ± 16.4 µM

Structure (SMILES): O=C(Cc1ccccc1)NC(=S)Nc1ccc([N+](=O)[O-])cc1Cl [Compound 2e, N-((2-Chloro-4-nitrophenyl)carbamothioyl)-2-phenylacetamide]
IC50 [1]: 37.76 ± 0.05 µM
IC50 [2]: 40.56 ± 0.05 µM
IC50 [3]: 25.64 ± 0.08 µM
IC50 [4]: 25.96 ± 0.05 µM
IC50 at 48 h (In vitro cytotoxic assay): 169 ± 17.4 µM

Structure (SMILES): O=C(Cc1ccccc1)Nc1nc2ccccc2[nH]1 [Compound 3, N-(1H-Benzo[d]imidazol-2-yl)-2-phenylacetamide]
IC50 [1]: 37.73 ± 0.02 µM
IC50 [2]: 17.29 ± 0.03 µM
IC50 [3]: 6.59 ± 0.07 µM
IC50 [4]: 10.42 ± 0.05 µM
IC50 at 48 h (In vitro cytotoxic assay): 179 ± 18.8 µM

IC50 (p53 ubiquitination): 0.00068 ± 1e-05 µM
IC50 (EGFR^WT): 0.25 ± 0.01 µM
IC50 (EGFR^T790M): 0.17 ± 0.05 µM
Structure (SMILES): CC(C)Nc1nnc(Cc2ccccc2)[nH]1 [Compound 5a, 5-Benzyl-N-isopropyl-4H-1,2,4-triazol-3-amine]
IC50 [1]: 35.66 ± 0.04 µM
SI (selectivity index) HepG-2 [1]: SI = 4.90
IC50 [2]: 16.49 ± 0.05 µM
SI (selectivity index) PC-3 [2]: SI = 10.60
IC50 [3]: 5.42 ± 0.05 µM
SI (selectivity index) MCF-7 [3]: SI = 32.26
IC50 [4]: 10.37 ± 0.04 µM
SI (selectivity index) A-549 [4]: SI = 16.86
IC50 at 48 h (In vitro cytotoxic assay): 175 ± 18.2 µM

IC50 (p53 ubiquitination): 0.00062 ± 5e-05 µM
IC50 (EGFR^WT): 0.22 ± 0.15 µM
IC50 (EGFR^T790M): 0.13 ± 0.11 µM
Structure (SMILES): c1ccc(Cc2nnc(Nc3nccs3)[nH]2)cc1 [Compound 5b, N-(5-Benzyl-4H-1,2,4-triazol-3-yl)thiazol-2-amine]
IC50 [1]: 38.49 ± 0.02 µM
SI (selectivity index) HepG-2 [1]: SI = 4.30
IC50 [2]: 18.22 ± 0.03 µM
SI (selectivity index) PC-3 [2]: SI = 9.09
IC50 [3]: 4.18 ± 0.03 µM
SI (selectivity index) MCF-7 [3]: SI = 39.65
IC50 [4]: 8.27 ± 0.03 µM
SI (selectivity index) A-549 [4]: SI = 20.04
IC50 at 48 h (In vitro cytotoxic assay): 166 ± 17.4 µM

IC50 (EGFR^WT): 0.24 ± 0.3 µM
IC50 (EGFR^T790M): 0.14 µM
Structure (SMILES): Oc1cccc(Nc2nnc(Cc3ccccc3)[nH]2)c1 [Compound 5c, 3-((5-Benzyl-4H-1,2,4-triazol-3-yl)amino)phenol]
IC50 [1]: 27.59 ± 0.04 µM
SI (selectivity index) HepG-2 [1]: SI = 5.23
IC50 [2]: 18.44 ± 0.04 µM
SI (selectivity index) PC-3 [2]: SI = 7.93
IC50 [3]: 4.33 ± 0.04 µM
SI (selectivity index) MCF-7 [3]: SI = 33.79
IC50 [4]: 12.3 ± 0.04 µM
SI (selectivity index) A-549 [4]: SI = 11.89
IC50 at 48 h (In vitro cytotoxic assay): 146 ± 16.1 µM

IC50 (EGFR^WT): 0.18 ± 0.1 µM
IC50 (EGFR^T790M): 0.12 ± 0.18 µM
Structure (SMILES): c1ccc(Cc2nc(Nc3nccs3)n(-c3ccccc3)n2)cc1 [Compound 6a, N-(3-Benzyl-1-phenyl-1H-1,2,4-triazol-5-yl)thiazol-2-amine]
IC50 [1]: 10.48 ± 0.03 µM
SI (selectivity index) HepG-2 [1]: SI = 15.02
IC50 [2]: 16.3 ± 0.09 µM
SI (selectivity index) PC-3 [2]: SI = 9.65
IC50 [3]: 4.3 ± 0.04 µM
SI (selectivity index) MCF-7 [3]: SI = 36.61
IC50 [4]: 5.2 ± 0.03 µM
SI (selectivity index) A-549 [4]: SI = 30.27
IC50 at 48 h (In vitro cytotoxic assay): 157 ± 16.9 µM

IC50 (p53 ubiquitination): 0.0005 ± 5e-05 µM
IC50 (EGFR^WT): 0.08 ± 0.05 µM
fold more potent EGFR^WT inhibitor than erlotinib (EGFR^WT; EGFR^WT): 1 fold
IC50 (EGFR^T790M): 0.09 ± 0.01 µM
Structure (SMILES): Oc1cccc(Nc2nc(Cc3ccccc3)nn2-c2ccccc2)c1 [Compound 6b, 3-((3-Benzyl-1-phenyl-1H-1,2,4-triazol-5-yl)amino)phenol]
IC50 [1]: 5.47 ± 0.02 µM
SI (selectivity index) HepG-2 [1]: SI = 32.58
IC50 [2]: 13.21 ± 0.06 µM
SI (selectivity index) PC-3 [2]: SI = 13.49
IC50 [3]: 1.29 ± 0.03 µM
folds more potent than doxorubicin and erlotinib ([3]; MCF-7 cells): 3.2 folds
SI (selectivity index) MCF-7 [3]: SI = 138.16
folds more potent than doxorubicin ([4]; A-549 cell line): 2.6 folds
IC50 [4]: 3.18 ± 0.03 µM
SI (selectivity index) A-549 [4]: SI = 56.04
IC50 at 48 h (In vitro cytotoxic assay): 178 ± 17.7 µM

IC50 (p53 ubiquitination): 0.00048 ± 2e-05 µM
IC50 (EGFR^WT): 0.15 ± 0.02 µM
IC50 (EGFR^T790M): 0.13 ± 0.07 µM
Structure (SMILES): O=[N+]([O-])c1ccc(Nc2nc(Cc3ccccc3)nn2-c2ccccc2)c(Cl)c1 [Compound 6c, 3-Benzyl-N-(2-chloro-4-nitrophenyl)-1-phenyl-1H-1,2,4-triazol-5-amine]
IC50 [1]: 7.73 ± 0.04 µM
SI (selectivity index) HepG-2 [1]: SI = 24.27
IC50 [2]: 26.41 ± 0.05 µM
SI (selectivity index) PC-3 [2]: SI = 7.10
IC50 [3]: 2.51 ± 0.06 µM
SI (selectivity index) MCF-7 [3]: SI = 74.76
IC50 [4]: 5.8 ± 0.05 µM
SI (selectivity index) A-549 [4]: SI = 32.35
IC50 at 48 h (In vitro cytotoxic assay): 188 ± 19.8 µM

IC50 (EGFR^WT): 0.22 ± 0.05 µM
IC50 (EGFR^T790M): 0.18 ± 0.11 µM
Structure (SMILES): O=c1nc(Cc2ccccc2)[nH]c(Nc2nccs2)n1 [Compound 7, 4-Benzyl-6-(thiazol-2-ylamino)-1,3,5-triazin-2(5H)-one]
IC50 [1]: 29.75 ± 0.03 µM
IC50 [2]: 17.9 ± 0.03 µM
IC50 [3]: 4.65 ± 0.07 µM
folds less potency compared to erlotinib ([4]; A-549): ~2 folds
IC50 [4]: 7.43 ± 0.04 µM
IC50 at 48 h (In vitro cytotoxic assay): 165 ± 18.1 µM

Structure (SMILES): CC(C)N=c1nc(Cc2ccccc2)[nH]c(=S)[nH]1 [Compound 8a, 6-Benzyl-4-(isopropylimino)-3,4-dihydro-1,3,5-triazine-2(1H)-thione]
IC50 [1]: 59.84 ± 0.05 µM
SI (selectivity index) HepG-2 [1]: SI = 2.91
IC50 [2]: 36.55 ± 0.03 µM
SI (selectivity index) PC-3 [2]: SI = 4.74
IC50 [3]: 13.75 ± 0.08 µM
SI (selectivity index) MCF-7 [3]: SI = 12.61
IC50 [4]: 25.46 ± 0.05 µM
SI (selectivity index) A-549 [4]: SI = 6.81
IC50 at 48 h (In vitro cytotoxic assay): 173 ± 18.9 µM

Structure (SMILES): S=c1[nH]c(Cc2ccccc2)nc(=Nc2nccs2)[nH]1 [Compound 8b, 6-Benzyl-4-(thiazol-2-ylimino)-3,4-dihydro-1,3,5-triazine-2(1H)-thione]
IC50 [1]: 60.48 ± 0.05 µM
SI (selectivity index) HepG-2 [1]: SI = 3.25
IC50 [2]: 42.56 ± 0.06 µM
SI (selectivity index) PC-3 [2]: SI = 4.62
IC50 [3]: 17.95 ± 0.04 µM
SI (selectivity index) MCF-7 [3]: SI = 10.95
IC50 [4]: 37.21 ± 0.03 µM
SI (selectivity index) A-549 [4]: SI = 5.28
IC50 at 48 h (In vitro cytotoxic assay): 197 ± 20.7 µM

Structure (SMILES): Oc1cccc(N=c2nc(Cc3ccccc3)[nH]c(=S)[nH]2)c1 [Compound 8c, 6-Benzyl-4-((3-hydroxyphenyl)imino)-3,4-dihydro-1,3,5-triazine-2(1H)-thione]
IC50 [1]: 45.49 ± 0.04 µM
SI (selectivity index) HepG-2 [1]: SI = 4.15
IC50 [2]: 32.48 ± 0.04 µM
SI (selectivity index) PC-3 [2]: SI = 5.81
IC50 [3]: 10.31 ± 0.04 µM
SI (selectivity index) MCF-7 [3]: SI = 18.32
IC50 [4]: 8.29 ± 0.03 µM
SI (selectivity index) A-549 [4]: SI = 22.78
IC50 at 48 h (In vitro cytotoxic assay): 189 ± 19.9 µM

Structure (SMILES): O=[N+]([O-])c1ccc(N=c2nc(Cc3ccccc3)[nH]c(=S)[nH]2)c(Cl)c1 [Compound 8d, 6-Benzyl-4-((2-chloro-4-nitrophenyl)imino)-3,4-dihydro-1,3,5-triazine-2(1H)-thione]
IC50 [1]: 47.86 ± 0.05 µM
SI (selectivity index) HepG-2 [1]: SI = 3.74
IC50 [2]: 39.55 ± 0.08 µM
SI (selectivity index) PC-3 [2]: SI = 4.52
IC50 [3]: 14.77 ± 0.05 µM
SI (selectivity index) MCF-7 [3]: SI = 12.12
IC50 [4]: 9.5 ± 0.06 µM
SI (selectivity index) A-549 [4]: SI = 18.85
IC50 at 48 h (In vitro cytotoxic assay): 179 ± 19 µM

Structure (SMILES): COc1cccc2c1C(=O)c1c(O)c3c(c(O)c1C2=O)C[C@@](O)(C(=O)CO)C[C@@H]3O[C@H]1C[C@H](N)[C@H](O)[C@H](C)O1 [DOX, doxorubicin, reference compound]
IC50 [1]: 4.51 ± 0.26 µM
IC50 [2]: 8.11 ± 0.05 µM
IC50 [4]: 8.2 ± 0.08 µM
IC50 at 48 h (In vitro cytotoxic assay): 250 ± 26.6 µM

Structure (SMILES): C#Cc1cccc(Nc2ncnc3cc(OCCOC)c(OCCOC)cc23)c1 [erlotinib, reference compound]
IC50 [2]: 8.89 ± 0.6 µM
IC50 [4]: 3.76 ± 0.2 µM
IC50 at 48 h (In vitro cytotoxic assay): 45.8 ± 26.6 µM
